Data from patent publication US12458597B2, “Carotenoid compositions and uses thereof” (L.E.A.F. HOLDINGS GROUP LLC, priority 2018, dated 2025).

Experiments:
mouse CLP sepsis model = test: CLP sepsis survival Study 1 (TP-936); assay type: in vivo, C57BL/6 mice; settings: CLP mice treated with saline and imipenem (control group); over 5 days
Text: Male and/or female C57BL/6 mice ordered from Envigo Laboratories or the Jackson Lab (Bar Harbor, Maine) were acclimated to housing conditions and handled in accordance with Animal Use Protocol (AUP) number TP-05. The animals were acclimated for approximately 1 week prior to study start. Only animals deemed healthy were included in this study. Animals were fed irradiated Teklad Global Rodent Diet 2918 and water ad libitum. Mice were group housed 5/cage in static cages with irradiated Teklad ⅛″ corn cob bedding 7902 inside bioBubble® Clean Rooms that provide H.E.P. A filtered air into the bubble environment at 100 complete air changes per hour. The environment was controlled to a temperature range of 74°±5° F. and a humidity range of 30-70%. Treatment groups were identified by cage card. Individual mice were identified by indelible marker on the base of the tail. All procedures carried out in this experiment were conducted in compliance with the laws, regulations, and guidelines of the National Institutes of Health and with the approval of the TransPharm Animal Care and Use Committee.
On Day −1, male and/or female mice were anesthetized through use of isoflurane and brought to a surgical plane. […]
Animals were monitored continually post-surgery, at least once every 2-3 minutes for approximately 30 minutes, until the animals had recovered and were able to move about on their own. […]

[1] = Liposomal CTC and MTC PK in mice, plasma STC by HPLC; assay type: in vivo; settings: mouse, single dose, slow intravenous bolus
Procedure: Sample mixtures were well mixed by vortexing. […] Samples were vortexed and then centrifuged at 10000 RPM for 10 min at room temperature. 200 μL of supernatant was removed from each sample without disturbing pellet and analyzed by HPLC. If the amount of plasma permitted, this analysis was duplicated.
The concentration of STC in the plasma samples was quantified by standard curve constructed by analyzing plasma samples containing known amount of STC. PK profiles were analyzed.

[2] = Maximum solubility of trans-crocetin sodium in aqueous media; assay type: physicochemical; settings: 5% dextrose (aqueous medium), saline or isotonic; in 5% dextrose
Procedure: The ethanolic lipid solution containing HSPC, cholesterol, PEG-DSPE, with/without PGPC was added into the aqueous solution using a pipet. During this step the solution was well stirred using a magnetic stirrer. The mixing was performed at an elevated temperature (63° C.-72° C.) to ensure that the lipids are in the liquid crystalline state (as opposed to the gel state they attain at temperatures below the lipid transition temperature (Tm=51° C.-54° C.). As a result, the lipids are hydrated and formed multiple bilayer (multilamellar) vesicles (MLV) containing trans-crocetin sodium in the aqueous core. The MLVs were then downsized by extrusion as described previously.
The ethanolic lipid solution containing HSPC, cholesterol, PEG-DSPE, with/without PGPC and the trans-crocetin sodium aqueous solution were separately transferred to syringes. Two solutions were injected into a microfluidic channel and mixed while flowing through it with Precision NanoSystems' NanoAssemblr® device. The mixing was performed at an elevated temperature (63° C.-72° C.) to ensure that the lipids were in a liquid crystalline state (as opposed to the gel state that they attain at temperatures below the lipid transition temperature (Tm=51° C.-54° C.). The liposome size can be controlled by varying the ratio between lipid solution and aqueous solution, as well as the mixing flow rate.

[3] = Balb/c, iv, plasma over 24 hour

Row | SMILES | mortality (mouse CLP sepsis model) [%] | AUC [1, 3] [µg·h/mL] | half-life [1, 3] [min] | Cmax ([1]; Balb/c mice) [µg/mL] | solubility [2] [µg/mL]
1 | C[C@@H](O)[C@H]1C(=O)N2C(C(=O)O)=C(SCCN=CN)C[C@H]12 [imipenem] | 50 |  |  |  | 
2 | CC(/C=C/C=C(\C)C(=O)O)=C\C=C\C=C(C)\C=C\C=C(/C)C(=O)O [STC free drug, sodium trans-crocetinate] |  | 210 | 21 | 360 | 700
